Source: patent publication US20030194750A1, “Methods for treatment of diseases where GSK 3-beta is desired, and methods to identify compounds usefule for that” (priority 2002, published 2003)
Like-named read-outs stand apart in the source and are kept apart here.

Tests used:
PKG = PKG activity assay on lysates of drug-treated SW480 colon cancer cells (32P phosphorylation of PDE5/GST substrate); type: cell-based, human; conditions: SW480 cells treated 48 hrs; exisulind 200, 400, 600 μM, E4021 0.1, 1, 10 μM; assay with and without added cGMP
Experimental: A compound that inhibits all these types of PDE is desirable, accordingly. Below, we provide examples of such PDE-inhibiting compounds.
SW 480 is known to contain the APC mutation. About 5 million SW480 cells in RPMI 5% serum are added to each of 8 dishes:
2-10 cm dishes - - - 30 μL DMSO vehicle control (without drug),
3-10 cm dishes - - - 200 μM, 400 μM, 600 μM exisulind in DMSO, and
The dishes are incubated for 48 hrs at 37° C. in 5% CO2 incubator.
The liquid media are aspirated from the dishes (the cells will attach themselves to the dishes). The attached cells are washed in each dish with cold PBS, and 200 μL cell lysis buffer (i.e., 50 mM Tris-HCl, 1% NP-40, 150 mM NaCl, 1 mM EDTA, 1 mM Na3VO4, 1 mM NaF, 500 μM IBMX with proteinase inhibitors) is added to each dish. Immediately after the cell lysis buffer is added, the lysed cells are collected by scraping the cells off each dish. The cell lysate from each dish is transferred to a microfuge tube, and the microfuge tubes are incubated at 4° C. for 15 minutes while gently agitating the microfuge tubes to allow the cells to lyse completely. […]
For each control or drug cell lysate sample to be evaluated, the reaction is started by adding phosphorylation buffer containing 10 μCi ^32P-γ-ATP solution (200 μM ATP, 4.5 mM MgCl; 5 mM KH2PO4; 5 mM K2HPO4;) to each mixture. […]

[1] = biological target: T1, GST-cGB-PDE5 fusion protein (Homo sapiens, UniProt O76074); assay: cGMP binding assay with GST-cGB-PDE5 fusion protein; conditions: for competition with cGMP binding at high concentration: 100 μM compound vs cGMP 2 μM
T1 construct: made in house; host or cells: E. coli BL21 (DE3)
Experimental: 5′-3′, Inc. kits for total RNA followed by oligo (dT) column purification of mRNA are used with HT-29 cells. […] It is then cloned into pGEX-5X-3 glutathione-S-transferase (GST) fusion vector (Pharmacia Biotech) with tac promoter, and EcoRI and XhoI cut sites. The fusion vector is then transfected into E. Coli BL21 (DE3) bacteria (Invitrogen). The transfected BL21 bacteria is grown to log phase, and then IPTG is added as an inducer. The induction is carried at 20° C. for 24 hrs. The bacteria are harvested and lysed. The soluble cell lysate is incubated with GSH conjugated Sepharose 4B (GSH-Sepharose 4B). The GST-cGB-PDE5 fusion protein can bind to the GSH-Sepharose beads, and the other proteins are washed off from beads with excessive cold PBS.
Then, the mixture is transferred to Brandel MB-24 cell harvester with GF/B as the filter membrane followed by 2 washes with 10 mL of cold 5 mM potassium buffer( pH 6.8). The membranes are then cut out and transferred to scintillation vials followed by the addition of 1 mL of H2O and 6 mL of Ready Safe™ liquid scintillation cocktail to each vial. The vials are counted on a Beckman LS 6500 scintillation counter.
The quenching by filter membrane or other debris are also calibrated.

GSK3β = assay: Western blot of GSK3β-phospho-ser9 in SW480 cells; type: cell-based, human; conditions: various concentrations, 48 hours, vs 0 concentration
Experimental: (§1) 50 μg protein/lane were analyzed by Western blot analysis using specific anti-PKG1β and anti-GSK3β-phospho-ser9 antibodies.

PKG1β = assay: Western blot of PKG1β in SW480 cells; type: cell-based, human; conditions: various concentrations, 48 hours
Experimental: as §1

native bovine PDE5 = native bovine PDE5 (Bos taurus, UniProt Q28156); conditions: read-out: Kd of cGMP binding; cited from earlier work

T1 sequence (O76074 46-539 limits assumed): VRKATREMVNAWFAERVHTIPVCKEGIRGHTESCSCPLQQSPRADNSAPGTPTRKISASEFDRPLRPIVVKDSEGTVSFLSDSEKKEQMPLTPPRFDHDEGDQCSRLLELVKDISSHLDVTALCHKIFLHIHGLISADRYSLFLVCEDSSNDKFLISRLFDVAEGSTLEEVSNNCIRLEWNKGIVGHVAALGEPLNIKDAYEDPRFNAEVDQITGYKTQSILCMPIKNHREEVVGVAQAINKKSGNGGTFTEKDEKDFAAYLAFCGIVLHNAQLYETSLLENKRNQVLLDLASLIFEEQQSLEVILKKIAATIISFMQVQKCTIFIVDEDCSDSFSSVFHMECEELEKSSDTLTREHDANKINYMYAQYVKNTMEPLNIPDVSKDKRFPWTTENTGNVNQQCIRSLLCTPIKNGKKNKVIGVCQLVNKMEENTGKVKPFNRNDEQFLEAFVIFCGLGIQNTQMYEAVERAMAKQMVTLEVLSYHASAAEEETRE

SMILES: O=C([O-])C1CCN(c2nc(NCc3ccc4c(c3)OCO4)c3cc(Cl)ccc3n2)CC1.[Na+] [Example E4021]
- PKG activity relative to control (PKG): do not exhibit PKG activation relative to control
- competition with cGMP for the cGMP binding sites ([1]; 3H-cGMP 2 μM, 22° C., 1 hour): None of the PDE5 inhibitors showed any competition with cGMP in binding

SMILES: Nc1ccn([C@@H]2O[C@@H]3COP(=O)(O)O[C@H]3[C@H]2O)c(=O)n1 [cCMP, cyclic CMP]
- competition with cGMP for the cGMP binding sites ([1]; 3H-cGMP 2 μM, 22° C., 1 hour): did not compete with cGMP in binding

SMILES: CCCCOC1C2OP(=O)(O)OCC2OC1n1cnc2c(N)ncnc21 (stereo not shown) [2′-O-butyl-cAMP]
- competition with cGMP for the cGMP binding sites ([1]; 3H-cGMP 2 μM, 22° C., 1 hour): did not compete with cGMP in binding

SMILES: COc1cc(/C=C2/C(C)=C(CC(=O)NCc3ccccc3)c3cc(F)ccc32)cc(OC)c1OC [Compound A, 1H-indene-3-acetamide, 5-fluoro-2-methyl-N-(phenylmethyl)-1-[(3,4,5-trimethoxyphenyl)methylene]-, (1Z)]
- GSK3β inactivation by Ser9 phosphorylation (GSK3β): inactivated in vivo by phosphorylation of its Ser9
- PKG1 induction (PKG1β): PKG1 induction in a dose-dependent manner

SMILES: Nc1nc2c(ncn2[C@@H]2O[C@@H]3COP(=O)(O)O[C@H]3[C@H]2O)c(=O)[nH]1 [cGMP, cyclic 3′,5′-guanosine monophosphate]
- binding of cGMP to the fusion protein [1]: specifically bound to GST-cGB-PDE5 protein
- Kd ([1]; read-out: Kd of cGMP binding, two cGMP binding sites): 1600 ± 200 nM
- Kd (native bovine PDE5): 1300 nM

SMILES: CCCOc1ccccc1-c1nc2nn[nH]c2c(=O)[nH]1 [zaprinast]
- competition with cGMP for the cGMP binding sites ([1]; 3H-cGMP 2 μM, 22° C., 1 hour): None of the PDE5 inhibitors showed any competition with cGMP in binding

SMILES: O=c1[nH]cnc2c1ncn2[C@@H]1O[C@@H]2COP(=O)(O)O[C@H]2[C@H]1O [Cyclic IMP]
- competition with cGMP binding at high concentration [1]: can partially compete with cGMP

SMILES: O=c1ccn([C@@H]2O[C@@H]3COP(=O)(O)O[C@H]3[C@H]2O)c(=O)[nH]1 [cUMP, cyclic UMP]
- competition with cGMP for the cGMP binding sites ([1]; 3H-cGMP 2 μM, 22° C., 1 hour): did not compete with cGMP in binding

SMILES: CCCCOC1C2OP(=O)(O)OCC2OC1n1cnc2c(=O)[nH]c(N)nc21 (stereo not shown) [2′-O-butyl-cGMP]
- competition with cGMP for the cGMP binding sites ([1]; 3H-cGMP 2 μM, 22° C., 1 hour): did not compete with cGMP in binding

SMILES: Nc1ncnc2c1ncn2[C@@H]1O[C@@H]2COP(=O)(O)O[C@H]2[C@H]1O [Cyclic AMP]
- competition with cGMP for the cGMP binding sites [1]: did not compete with cGMP in binding

SMILES: CSc1ccc(/C=C2/C(C)=C(CC(=O)O)c3cc(F)ccc32)cc1 [Sulindac sulfide]
- competition with cGMP for the cGMP binding sites ([1]; 3H-cGMP 2 μM, 22° C., 1 hour): None of the PDE5 inhibitors showed any competition with cGMP in binding

SMILES: Nc1nc2c(nc(Br)n2[C@@H]2O[C@@H]3COP(=O)(O)O[C@H]3[C@H]2O)c(=O)[nH]1 [Example 8-bromo-cGMP, 8-bromo-cGMP]
- competition with cGMP binding at high concentration [1]: can partially compete with cGMP
